Measured values as given in ChEMBL document CHEMBL5291721, “A preclinical secondary pharmacology resource illuminates target-adverse drug reaction associations of marketed drugs” (Nat Commun, 2023).

How the values were obtained:
Thromboxane A2 receptor = target: T1, Thromboxane A2 receptor (Homo sapiens, UniProt P21731); type: functional, cell-based
T1 sequence (P21731 whole entry): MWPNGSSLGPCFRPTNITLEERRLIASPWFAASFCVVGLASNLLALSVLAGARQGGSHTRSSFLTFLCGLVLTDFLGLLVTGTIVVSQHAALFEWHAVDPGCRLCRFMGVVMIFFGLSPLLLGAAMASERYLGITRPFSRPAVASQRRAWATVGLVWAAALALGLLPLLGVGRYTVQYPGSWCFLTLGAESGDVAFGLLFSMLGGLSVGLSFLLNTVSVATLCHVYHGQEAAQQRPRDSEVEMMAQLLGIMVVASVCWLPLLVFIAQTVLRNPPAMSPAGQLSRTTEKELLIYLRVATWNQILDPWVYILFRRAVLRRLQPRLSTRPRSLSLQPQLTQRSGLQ

[1] = target: cGMP-inhibited 3',5'-cyclic phosphodiesterase 3A (Homo sapiens, UniProt Q14432); type: functional
[2] = target: T2, 5-hydroxytryptamine receptor 1A (Homo sapiens, UniProt P08908)
T2 sequence (P08908 whole entry): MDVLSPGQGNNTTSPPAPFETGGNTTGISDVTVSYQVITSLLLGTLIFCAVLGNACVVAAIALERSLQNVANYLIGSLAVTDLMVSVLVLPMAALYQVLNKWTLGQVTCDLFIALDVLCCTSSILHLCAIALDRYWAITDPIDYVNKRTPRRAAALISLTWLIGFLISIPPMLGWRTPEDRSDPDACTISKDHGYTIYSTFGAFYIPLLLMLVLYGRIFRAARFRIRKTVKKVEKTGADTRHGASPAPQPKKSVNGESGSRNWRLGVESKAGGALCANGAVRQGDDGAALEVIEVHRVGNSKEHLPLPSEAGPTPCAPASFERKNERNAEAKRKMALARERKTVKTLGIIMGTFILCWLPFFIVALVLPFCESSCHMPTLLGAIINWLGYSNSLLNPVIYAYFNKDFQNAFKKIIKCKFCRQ

[3] = target: Prostaglandin G/H synthase 1 (Homo sapiens, UniProt P23219); type: functional
Acetylcholinesterase = Acetylcholinesterase (Homo sapiens, UniProt P22303); type: functional
Progesterone receptor = target: T3, Progesterone receptor (Homo sapiens, UniProt P06401)
T3 sequence (P06401 whole entry): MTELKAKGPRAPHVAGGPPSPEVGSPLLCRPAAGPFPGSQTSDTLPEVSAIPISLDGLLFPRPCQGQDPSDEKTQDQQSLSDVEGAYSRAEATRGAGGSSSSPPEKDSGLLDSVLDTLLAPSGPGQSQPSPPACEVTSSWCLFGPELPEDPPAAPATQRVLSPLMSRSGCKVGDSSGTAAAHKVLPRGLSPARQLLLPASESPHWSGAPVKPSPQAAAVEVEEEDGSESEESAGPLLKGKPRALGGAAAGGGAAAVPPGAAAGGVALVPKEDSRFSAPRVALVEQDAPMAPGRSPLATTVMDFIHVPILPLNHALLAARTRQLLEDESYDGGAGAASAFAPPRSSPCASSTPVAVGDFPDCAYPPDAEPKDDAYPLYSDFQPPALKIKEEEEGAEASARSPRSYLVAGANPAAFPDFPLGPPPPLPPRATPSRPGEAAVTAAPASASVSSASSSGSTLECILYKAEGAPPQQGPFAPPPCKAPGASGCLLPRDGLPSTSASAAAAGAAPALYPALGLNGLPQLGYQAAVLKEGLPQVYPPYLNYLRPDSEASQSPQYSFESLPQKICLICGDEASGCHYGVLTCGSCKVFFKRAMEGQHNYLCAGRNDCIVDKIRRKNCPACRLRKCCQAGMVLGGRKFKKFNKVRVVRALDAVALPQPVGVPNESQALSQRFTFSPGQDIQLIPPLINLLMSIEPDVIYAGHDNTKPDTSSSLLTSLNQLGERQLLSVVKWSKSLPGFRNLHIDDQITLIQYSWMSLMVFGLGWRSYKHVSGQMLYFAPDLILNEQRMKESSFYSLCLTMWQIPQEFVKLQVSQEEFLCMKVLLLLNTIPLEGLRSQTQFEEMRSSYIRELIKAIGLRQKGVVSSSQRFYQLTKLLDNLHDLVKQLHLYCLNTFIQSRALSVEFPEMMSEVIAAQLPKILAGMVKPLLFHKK

[4] = target: Sodium-dependent serotonin transporter (Homo sapiens, UniProt P31645)
[5] = target: T4, Alpha-1A adrenergic receptor (Homo sapiens, UniProt P35348); type: functional, cell-based
T4 sequence (P35348 whole entry): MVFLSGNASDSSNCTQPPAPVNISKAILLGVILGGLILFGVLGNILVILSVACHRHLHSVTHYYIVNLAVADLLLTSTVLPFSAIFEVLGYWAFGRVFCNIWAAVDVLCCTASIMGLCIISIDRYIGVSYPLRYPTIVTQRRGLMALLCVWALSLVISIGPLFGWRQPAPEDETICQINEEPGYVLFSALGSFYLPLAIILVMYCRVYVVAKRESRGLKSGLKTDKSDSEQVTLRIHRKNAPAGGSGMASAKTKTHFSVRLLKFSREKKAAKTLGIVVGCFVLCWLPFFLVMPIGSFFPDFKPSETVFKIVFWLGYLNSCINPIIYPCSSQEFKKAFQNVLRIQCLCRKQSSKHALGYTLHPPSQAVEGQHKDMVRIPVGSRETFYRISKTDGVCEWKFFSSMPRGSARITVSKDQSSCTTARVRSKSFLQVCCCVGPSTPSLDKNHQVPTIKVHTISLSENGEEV

Adenosine receptor A3 = target: T5, Adenosine receptor A3 (Homo sapiens, UniProt P0DMS8)
T5 sequence (P0DMS8 whole entry): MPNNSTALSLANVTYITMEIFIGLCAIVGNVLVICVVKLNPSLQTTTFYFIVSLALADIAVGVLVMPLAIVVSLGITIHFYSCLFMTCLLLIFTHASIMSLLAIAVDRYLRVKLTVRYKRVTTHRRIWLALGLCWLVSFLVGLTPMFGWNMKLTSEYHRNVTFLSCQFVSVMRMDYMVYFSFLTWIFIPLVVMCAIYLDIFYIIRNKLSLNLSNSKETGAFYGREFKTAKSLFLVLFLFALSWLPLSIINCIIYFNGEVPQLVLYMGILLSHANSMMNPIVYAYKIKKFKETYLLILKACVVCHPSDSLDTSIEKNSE
Note: assay procedure not described here.

Chain of Sodium-dependent serotonin transporter (P31645 whole entry): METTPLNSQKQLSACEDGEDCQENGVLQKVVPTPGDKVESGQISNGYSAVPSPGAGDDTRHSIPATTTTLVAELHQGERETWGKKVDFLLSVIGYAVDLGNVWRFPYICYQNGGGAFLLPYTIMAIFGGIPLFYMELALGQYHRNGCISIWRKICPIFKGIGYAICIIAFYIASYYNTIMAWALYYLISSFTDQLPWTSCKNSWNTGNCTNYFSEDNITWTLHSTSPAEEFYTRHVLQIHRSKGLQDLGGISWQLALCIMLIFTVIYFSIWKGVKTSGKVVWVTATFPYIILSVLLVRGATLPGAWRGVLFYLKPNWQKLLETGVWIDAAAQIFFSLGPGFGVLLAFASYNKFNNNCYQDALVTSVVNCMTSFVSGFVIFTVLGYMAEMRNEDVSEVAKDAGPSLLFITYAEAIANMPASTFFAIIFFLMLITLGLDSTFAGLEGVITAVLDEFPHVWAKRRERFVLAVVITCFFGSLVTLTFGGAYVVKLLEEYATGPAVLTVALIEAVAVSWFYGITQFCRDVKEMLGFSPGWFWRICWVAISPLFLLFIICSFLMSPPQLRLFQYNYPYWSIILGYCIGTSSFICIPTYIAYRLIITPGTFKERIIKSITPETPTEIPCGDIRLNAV
Chain of Acetylcholinesterase (P22303 whole entry): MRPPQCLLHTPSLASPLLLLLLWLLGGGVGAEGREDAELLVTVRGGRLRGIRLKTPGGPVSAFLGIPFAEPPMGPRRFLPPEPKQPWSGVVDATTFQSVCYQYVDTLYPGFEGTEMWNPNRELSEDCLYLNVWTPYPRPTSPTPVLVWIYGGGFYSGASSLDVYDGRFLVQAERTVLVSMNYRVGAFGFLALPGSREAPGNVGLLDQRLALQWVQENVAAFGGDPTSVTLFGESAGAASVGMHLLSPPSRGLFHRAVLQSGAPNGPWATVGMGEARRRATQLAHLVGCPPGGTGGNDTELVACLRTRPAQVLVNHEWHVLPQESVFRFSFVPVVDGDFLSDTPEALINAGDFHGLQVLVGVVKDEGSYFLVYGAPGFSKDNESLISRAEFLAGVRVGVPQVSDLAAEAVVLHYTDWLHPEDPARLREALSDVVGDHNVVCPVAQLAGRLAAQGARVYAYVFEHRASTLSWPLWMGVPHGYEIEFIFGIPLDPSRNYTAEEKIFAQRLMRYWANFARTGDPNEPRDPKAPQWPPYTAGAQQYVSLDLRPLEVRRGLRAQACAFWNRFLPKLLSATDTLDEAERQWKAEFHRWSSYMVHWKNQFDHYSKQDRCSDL
Chain of Prostaglandin G/H synthase 1 (P23219 whole entry): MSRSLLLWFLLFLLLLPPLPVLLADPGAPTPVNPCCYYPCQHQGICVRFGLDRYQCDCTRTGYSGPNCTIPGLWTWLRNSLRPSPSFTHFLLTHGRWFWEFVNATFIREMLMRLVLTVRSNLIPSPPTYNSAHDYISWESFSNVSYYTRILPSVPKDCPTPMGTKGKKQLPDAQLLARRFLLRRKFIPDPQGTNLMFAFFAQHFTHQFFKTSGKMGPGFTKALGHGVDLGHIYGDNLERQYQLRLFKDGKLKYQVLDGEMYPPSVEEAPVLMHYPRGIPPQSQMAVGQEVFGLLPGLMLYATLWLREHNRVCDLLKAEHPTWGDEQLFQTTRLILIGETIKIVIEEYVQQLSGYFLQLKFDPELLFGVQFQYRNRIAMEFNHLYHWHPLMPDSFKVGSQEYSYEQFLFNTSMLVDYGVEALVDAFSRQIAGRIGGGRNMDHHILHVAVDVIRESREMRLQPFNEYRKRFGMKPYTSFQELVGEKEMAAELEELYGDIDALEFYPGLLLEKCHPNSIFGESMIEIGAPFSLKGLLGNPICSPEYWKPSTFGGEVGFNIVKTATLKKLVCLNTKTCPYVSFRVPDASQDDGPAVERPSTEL
Chain of cGMP-inhibited 3',5'-cyclic phosphodiesterase 3A (Q14432 whole entry): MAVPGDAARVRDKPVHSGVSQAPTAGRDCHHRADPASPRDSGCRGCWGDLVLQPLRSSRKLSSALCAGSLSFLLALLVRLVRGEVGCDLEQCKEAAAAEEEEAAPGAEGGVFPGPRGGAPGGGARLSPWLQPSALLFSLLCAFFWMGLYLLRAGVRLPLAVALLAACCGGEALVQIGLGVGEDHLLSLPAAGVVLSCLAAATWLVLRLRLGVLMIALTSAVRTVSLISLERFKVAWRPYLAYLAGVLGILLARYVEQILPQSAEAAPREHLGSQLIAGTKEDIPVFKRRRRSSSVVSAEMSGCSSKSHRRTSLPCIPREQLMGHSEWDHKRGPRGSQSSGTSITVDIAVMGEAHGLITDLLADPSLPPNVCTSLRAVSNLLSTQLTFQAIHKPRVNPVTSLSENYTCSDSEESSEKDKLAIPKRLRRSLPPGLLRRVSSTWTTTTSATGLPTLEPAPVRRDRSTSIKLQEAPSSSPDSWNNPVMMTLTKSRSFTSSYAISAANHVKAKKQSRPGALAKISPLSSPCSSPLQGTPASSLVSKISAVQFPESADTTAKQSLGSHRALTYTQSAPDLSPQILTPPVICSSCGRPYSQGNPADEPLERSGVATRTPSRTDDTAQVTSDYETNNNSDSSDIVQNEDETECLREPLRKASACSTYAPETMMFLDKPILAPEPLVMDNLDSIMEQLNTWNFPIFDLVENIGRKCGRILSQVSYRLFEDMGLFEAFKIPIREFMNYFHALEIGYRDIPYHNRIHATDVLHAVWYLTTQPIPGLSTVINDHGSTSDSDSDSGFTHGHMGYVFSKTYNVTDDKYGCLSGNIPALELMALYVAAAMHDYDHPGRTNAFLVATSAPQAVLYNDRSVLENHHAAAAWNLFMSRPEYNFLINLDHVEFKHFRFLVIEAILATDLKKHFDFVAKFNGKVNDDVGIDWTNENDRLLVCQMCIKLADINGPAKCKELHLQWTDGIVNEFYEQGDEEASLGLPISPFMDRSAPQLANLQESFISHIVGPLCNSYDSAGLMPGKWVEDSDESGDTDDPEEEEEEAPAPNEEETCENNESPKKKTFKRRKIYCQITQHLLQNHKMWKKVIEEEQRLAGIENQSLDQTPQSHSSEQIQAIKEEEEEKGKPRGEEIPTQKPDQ

Row | SMILES | AC50 (Thromboxane A2 receptor) [µM] | AC50 [1] [µM] | AC50 [2] [µM] | AC50 [3] [µM] | AC50 (Acetylcholinesterase) [µM] | AC50 (Progesterone receptor) [µM] | AC50 [4] [µM] | AC50 [5] [µM] | AC50 (Adenosine receptor A3) [µM]
1 | CCCCCCCC(=O)N[C@H](CN1CCCC1)[C@H](O)c1ccc2c(c1)OCCO2 | > 30 | > 30 | 14.3 | 10.1 | > 30 | > 30 | > 30 | – | –
2 | C[C@]1(COc2ccc(N3CCC(Oc4ccc(OC(F)(F)F)cc4)CC3)cc2)Cn2cc([N+](=O)[O-])nc2O1 | > 30 | > 30 | > 30 | 27.9 | > 30 | > 30 | 2.02 | > 30 | –
3 | CC(=O)OCC[N+](C)(C)C [ACETYLCHOLINE] | – | > 30 | > 30 | > 30 | > 30 | > 30 | > 30 | > 30 | –
4 | O=C(Nc1nc(-c2cc(Cl)cs2)c(N2CCN(C3CCCCC3)CC2)s1)c1cnc(N2CCC(C(=O)O)CC2)c(Cl)c1 [AVATROMBOPAG] | > 10 | > 30 | > 30 | > 30 | > 30 | > 30 | > 30 | – | –
5 | C[C@@H](O)[C@H]1C(=O)N2C(C(=O)[O-])=C(SC3Cn4cnc[n+]4C3)[C@H](C)[C@H]12 (some centres undefined) [BIAPENEM] | > 30 | > 30 | > 30 | > 30 | > 30 | > 30 | > 30 | > 30 | –
6 | CO[C@@]1(NC(=O)CSCC#N)C(=O)N2C(C(=O)O)=C(CSc3nnnn3C)CS[C@@H]21 [CEFMETAZOLE] | > 30 | > 30 | > 30 | > 30 | > 30 | > 30 | – | – | –
7 | O=C(O)CC(O)(CC(=O)O)C(=O)O [CITRIC ACID] | > 30 | > 30 | > 30 | > 30 | > 30 | > 30 | – | > 30 | > 30
8 | CC[C@H]1OC(=O)[C@H](C)[C@@H](O[C@H]2C[C@@](C)(OC)[C@@H](O)[C@H](C)O2)[C@H](C)[C@@H](O[C@@H]2O[C@H](C)C[C@H](N(C)C)[C@H]2O)[C@](C)(OC)C[C@@H](C)C(=O)[C@H](C)[C@@H](O)[C@]1(C)O [CLARITHROMYCIN] | > 30 | > 30 | > 30 | > 30 | > 30 | > 30 | – | > 30 | > 30
9 | Oc1c(I)cc(Cl)c2cccnc12 [CLIOQUINOL] | > 10 | > 30 | > 30 | > 30 | > 30 | > 30 | > 30 | – | –
10 | C[C@H]1O[C@@H](O[C@H]2[C@@H](O)C[C@H](O[C@H]3[C@@H](O)C[C@H](O[C@H]4CC[C@@]5(C)[C@H](CC[C@@H]6[C@@H]5CC[C@]5(C)[C@@H](C7=CC(=O)OC7)CC[C@]65O)C4)O[C@@H]3C)O[C@@H]2C)C[C@H](O)[C@@H]1O [DIGITOXIN] | > 30 | > 30 | > 30 | > 30 | > 30 | > 30 | – | > 30 | > 30
